{"source": "ChEMBL document CHEMBL1201862", "about": "“PubChem BioAssay data set” (2004)", "experiment_in_all_cases": "growth of human tumour cells (NCI), 48 h", "key": {"[1]": {"tested_on": "SW-620"}, "[2]": {"tested_on": "PC-3"}, "[3]": {"tested_on": "HL-60"}, "[4]": {"tested_on": "CAKI-1"}, "[5]": {"tested_on": "EKVX"}, "[6]": {"tested_on": "OVCAR-8"}, "[7]": {"tested_on": "MOLT-4"}, "[8]": {"tested_on": "COLO 205"}, "[9]": {"tested_on": "RXF 393"}, "[10]": {"tested_on": "OVCAR-4"}, "[11]": {"tested_on": "HOP-62"}, "[12]": {"tested_on": "OVCAR-5"}, "[13]": {"tested_on": "SF-539"}, "[14]": {"tested_on": "HOP-92"}, "[15]": {"tested_on": "SF-295"}, "[16]": {"tested_on": "M14"}, "[17]": {"tested_on": "U-251"}, "[18]": {"tested_on": "NCI-H23"}, "[19]": {"tested_on": "SNB-75"}, "[20]": {"tested_on": "SK-MEL-28"}, "[21]": {"tested_on": "RPMI-8226"}, "[22]": {"tested_on": "ACHN"}, "[23]": {"tested_on": "OVCAR-3"}, "[24]": {"tested_on": "K562"}, "[25]": {"tested_on": "UO-31"}, "[26]": {"tested_on": "SK-MEL-5"}, "[27]": {"tested_on": "NCI-H226"}, "[28]": {"tested_on": "CCRF-CEM"}, "[29]": {"tested_on": "MDA-MB-435"}, "[30]": {"tested_on": "A549"}, "[31]": {"tested_on": "HCT-116"}, "[32]": {"tested_on": "HCT-15"}, "[33]": {"tested_on": "SK-MEL-2"}, "[34]": {"tested_on": "A498"}, "[35]": {"tested_on": "NCI/ADR-RES"}, "[36]": {"tested_on": "UACC-257"}, "[37]": {"tested_on": "786-0"}, "[38]": {"tested_on": "MCF7"}, "[39]": {"tested_on": "NCI-H522"}, "[40]": {"tested_on": "SR"}, "[41]": {"tested_on": "SK-OV-3"}, "[42]": {"tested_on": "KM12"}, "[43]": {"tested_on": "Hs-578T"}, "[44]": {"tested_on": "BT-549"}, "[45]": {"tested_on": "HT-29"}, "[46]": {"tested_on": "T47D"}, "[47]": {"tested_on": "TK-10"}, "[48]": {"tested_on": "IGROV-1"}, "[49]": {"tested_on": "MDA-MB-231"}, "[50]": {"tested_on": "Malme-3M"}, "[51]": {"tested_on": "DU-145"}, "[52]": {"tested_on": "SNB-19"}, "[53]": {"tested_on": "NCI-H460"}, "[54]": {"tested_on": "SF-268"}, "[55]": {"tested_on": "UACC-62"}, "[56]": {"tested_on": "LOX IMVI"}, "[57]": {"tested_on": "SN12C"}}, "note": "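Assay format: 96-well plates, 48-hour exposure. GI50 marks 50% less growth.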 Active and inactive are the calls of the source. No stated cut-off is given here; in the data, active = GI50 up to about 1.1 µM and inactive = higher.", "data": [{"smiles": "COc1cc2nc(-c3cccs3)oc(=O)c2cc1OC", "values": [{"measurement": "GI50", "setting": "[1]", "result": "> 100 µM (inactive)"}, {"measurement": "GI50", "setting": "[2]", "result": "> 100 µM (inactive)"}, {"measurement": "GI50", "setting": "[3]", "result": "> 100 µM (inactive)"}, {"measurement": "GI50", "setting": "[4]", "result": "> 100 µM (inactive)"}, {"measurement": "GI50", "setting": "[5]", "result": "> 100 µM (inactive)"}, {"measurement": "GI50", "setting": "[6]", "result": "53.1 µM (inactive)"}, {"measurement": "GI50", "setting": "[7]", "result": "> 100 µM (inactive)"}, {"measurement": "GI50", "setting": "[8]", "result": "> 100 µM (inactive)"}, {"measurement": "GI50", "setting": "[9]", "result": "> 100 µM (inactive)"}, {"measurement": "GI50", "setting": "[10]", "result": "> 100 µM (inactive)"}, {"measurement": "GI50", "setting": "[11]", "result": "17.6 µM (inactive)"}, {"measurement": "GI50", "setting": "[12]", "result": "> 100 µM (inactive)"}, {"measurement": "GI50", "setting": "[13]", "result": "57.3 µM (inactive)"}, {"measurement": "GI50", "setting": "[14]", "result": "> 100 µM (inactive)"}, {"measurement": "GI50", "setting": "[15]", "result": "> 100 µM (inactive)"}, {"measurement": "GI50", "setting": "[16]", "result": "> 100 µM (inactive)"}, {"measurement": "GI50", "setting": "[17]", "result": "38.5 µM (inactive)"}, {"measurement": "GI50", "setting": "[18]", "result": "97.9 µM (inactive)"}, {"measurement": "GI50", "setting": "[19]", "result": "> 100 µM (inactive)"}, {"measurement": "GI50", "setting": "[20]", "result": "> 100 µM (inactive)"}, {"measurement": "GI50", "setting": "[21]", "result": "> 100 µM (inactive)"}, {"measurement": "GI50", "setting": "[22]", "result": "> 100 µM (inactive)"}, {"measurement": "GI50", "setting": "[23]", "result": "> 100 µM (inactive)"}, {"measurement": "GI50", "setting": "[24]", "result": "> 100 µM (inactive)"}, {"measurement": "GI50", "setting": "[25]", "result": "> 100 µM (inactive)"}, {"measurement": "GI50", "setting": "[26]", "result": "> 100 µM (inactive)"}, {"measurement": "GI50", "setting": "[27]", "result": "50.7 µM (inactive)"}, {"measurement": "GI50", "setting": "[28]", "result": "> 100 µM (inactive)"}, {"measurement": "GI50", "setting": "[29]", "result": "> 100 µM (inactive)"}, {"measurement": "GI50", "setting": "[30]", "result": "> 100 µM (inactive)"}, {"measurement": "GI50", "setting": "[31]", "result": "86.5 µM (inactive)"}, {"measurement": "GI50", "setting": "[32]", "result": "> 100", "unit": "µM"}, {"measurement": "GI50", "setting": "[33]", "result": "> 100 µM (inactive)"}, {"measurement": "GI50", "setting": "[34]", "result": "> 100 µM (inactive)"}, {"measurement": "GI50", "setting": "[35]", "result": "51.2 µM (inactive)"}, {"measurement": "GI50", "setting": "[36]", "result": "> 100 µM (inactive)"}, {"measurement": "GI50", "setting": "[37]", "result": "94 µM (inactive)"}, {"measurement": "GI50", "setting": "[38]", "result": "> 100 µM (inactive)"}, {"measurement": "GI50", "setting": "[39]", "result": "> 100 µM (inactive)"}, {"measurement": "GI50", "setting": "[40]", "result": "> 100 µM (inactive)"}, {"measurement": "GI50", "setting": "[41]", "result": "> 100 µM (inactive)"}, {"measurement": "GI50", "setting": "[42]", "result": "> 100 µM (inactive)"}, {"measurement": "GI50", "setting": "[43]", "result": "72.1 µM (inactive)"}, {"measurement": "GI50", "setting": "[44]", "result": "42 µM (inactive)"}, {"measurement": "GI50", "setting": "[45]", "result": "> 100 µM (inactive)"}, {"measurement": "GI50", "setting": "[46]", "result": "> 100 µM (inactive)"}, {"measurement": "GI50", "setting": "[47]", "result": "> 100 µM (inactive)"}, {"measurement": "GI50", "setting": "[48]", "result": "> 100 µM (inactive)"}, {"measurement": "GI50", "setting": "[49]", "result": "74.8 µM (inactive)"}, {"measurement": "GI50", "setting": "[50]", "result": "> 100 µM (inactive)"}, {"measurement": "GI50", "setting": "[51]", "result": "> 100 µM (inactive)"}, {"measurement": "GI50", "setting": "[52]", "result": "47.3 µM (inactive)"}, {"measurement": "GI50", "setting": "[53]", "result": "> 100 µM (inactive)"}, {"measurement": "GI50", "setting": "[54]", "result": "61.7 µM (inactive)"}, {"measurement": "GI50", "setting": "[55]", "result": "> 100 µM (inactive)"}, {"measurement": "GI50", "setting": "[56]", "result": "> 100 µM (inactive)"}, {"measurement": "GI50", "setting": "[57]", "result": "> 100 µM (inactive)"}]}]}
